Results from publication PMC10568461, “A pilot study of cerebral metabolism and serotonin 5-HT2A receptor occupancy in rats treated with the psychedelic tryptamine DMT in conjunction with the MAO inhibitor harmine” (Frontiers in Pharmacology, 2023).

Key:
[1] = Brain concentrations of harmine, DMT and metabolites by UHPLC-MS after s.c. harmine and/or DMT; details: for concentration at 95 min / concentration at 65 min: rat, subcutaneous
Experimental: Groups of (n = 6) rats received either saline, harmine (1 mg/kg), DMT (1 mg/kg), or harmine + DMT (1 mg/kg each) as subcutaneous injections, as indicated in Figure 1.
After 45 min, rats were sacrificed by decapitation, and the brains dissected into cerebellum and frontal cortex samples for radioactivity measurement and chemical analysis, thus 65 min after harmine + DMT.

[2] = biological target: T1, MAO-A (Rattus norvegicus, UniProt P21396); set-up: method as in Maschauer et al., 2015; details: ref Maschauer et al., 2015; read-out: Apparent affinity (KD) at MAO-binding sites in living rat brain; cited from earlier work
T1 sequence (P21396 1-526): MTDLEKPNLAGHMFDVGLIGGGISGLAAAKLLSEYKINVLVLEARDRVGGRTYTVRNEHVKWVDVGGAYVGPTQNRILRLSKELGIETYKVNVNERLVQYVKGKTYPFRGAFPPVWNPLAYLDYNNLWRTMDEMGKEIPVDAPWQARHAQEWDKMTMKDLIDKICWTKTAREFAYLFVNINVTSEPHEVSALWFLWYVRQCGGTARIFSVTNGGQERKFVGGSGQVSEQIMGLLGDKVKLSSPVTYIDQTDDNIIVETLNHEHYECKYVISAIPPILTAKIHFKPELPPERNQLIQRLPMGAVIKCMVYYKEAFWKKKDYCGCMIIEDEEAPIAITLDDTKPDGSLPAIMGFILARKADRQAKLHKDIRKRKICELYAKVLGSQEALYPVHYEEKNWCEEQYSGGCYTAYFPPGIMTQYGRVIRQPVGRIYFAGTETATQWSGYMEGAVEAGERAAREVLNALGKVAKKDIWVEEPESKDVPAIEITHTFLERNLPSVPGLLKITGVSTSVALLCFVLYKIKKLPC

[3] = biological target: MAO-A; details: ref Maschauer et al., 2015; read-out: KD in vitro; cited from earlier work
[4] = biological target: T1, MAO-A; experiment: Apparent affinity at MAO binding sites in living brain; format: in vivo; details: from values of ref Maschauer et al., 2015
[5] = system: 5-HT2A receptors; details: cited from earlier work
[6] = Exp 1, group DMT, average of regions
[7] = Exp 1, group Har + DMT, average of regions
[8] = Exp 1, group Har + DMT, cerebellum
[9] = Exp 1, group Har + DMT, front cort
[10] = Exp 2, group Har + DMT, average of regions
[11] = Exp 2, group Har + DMT, cerebellum
[12] = Exp 2, group Har + DMT, front cort
[13] = brain (average of frontal cortex and cerebellum), 1 mg/kg, Molar concentration, Exp 1, group DMT, average of regions
[14] = brain (average of frontal cortex and cerebellum), Molar concentration, Exp 1, group Har + DMT, average of regions
[15] = brain (average of frontal cortex and cerebellum), Molar concentration, Exp 2, group Har + DMT, average of regions
[16] = cerebellum, 1 mg/kg, Molar concentration, Exp 1, group DMT, cerebellum
[17] = cerebellum, Molar concentration, Exp 1, group Har + DMT, cerebellum
[18] = cerebellum, Molar concentration, Exp 2, group Har + DMT, cerebellum
[19] = frontal cortex, 1 mg/kg, Molar concentration, Exp 1, group DMT, front cort
[20] = frontal cortex, Molar concentration, Exp 1, group Har + DMT, front cort
[21] = frontal cortex, Molar concentration, Exp 2, group Har + DMT, front cort

SMILES: O=C(O)Cc1c[nH]c2ccccc12 [3-IAA, indole-3-acetic acid]
- Percentage of total molar concentration of DMT and metabolites [1, 6]: 97.5%
- Percentage of total molar concentration of DMT and metabolites ([1]; Exp 1, group DMT, cerebellum): 97.9%
- Percentage of total molar concentration of DMT and metabolites ([1]; Exp 1, group DMT, front cort): 97.3%
- Percentage of total molar concentration of DMT and metabolites [1, 7]: 64.7%
- Percentage of total molar concentration of DMT and metabolites [1, 8]: 65.3%
- Percentage of total molar concentration of DMT and metabolites [1, 9]: 64.2%
- Percentage of total molar concentration of DMT and metabolites [1, 10]: 25.9%
- Percentage of total molar concentration of DMT and metabolites [1, 11]: 27.5%
- Percentage of total molar concentration of DMT and metabolites [1, 12]: 24.7%
- Brain concentration ([1]; Experiment 1, cerebellum, group DMT (1 mg/kg s.c.), 95 min, mean (SD)): 398.5 (128.3) ng/g
- Brain concentration ([1]; Experiment 1, cerebellum, group Har + DMT (1 mg/kg each s.c.), 95 min, mean (SD)): 194.1 (117.2) ng/g
- Brain concentration ([1]; Experiment 1, frontal cortex, group DMT (1 mg/kg s.c.), 95 min, mean (SD)): 503.9 (137.7) ng/g
- Brain concentration ([1]; Experiment 1, frontal cortex, group Har + DMT (1 mg/kg each s.c.), 95 min, mean (SD)): 257.5 (103.6) ng/g
- Lower cerebral 3-IAA concentration after co-administration of harmine and DMT ([1]; Experiment 1, versus DMT alone): 50%
- Brain concentration ([1]; Experiment 2, cerebellum, group Har + DMT (3 mg/kg each s.c.), 65 min, mean (SD)): 530.7 (129.8) ng/g
- Brain concentration ([1]; Experiment 2, frontal cortex, group Har + DMT (3 mg/kg each s.c.), 65 min, mean (SD)): 652.1 (186.5) ng/g
- concentration at 95 min [1, 13]: 2580 nM
- concentration at 95 min [1, 14]: 1290 nM
- concentration at 65 min [1, 15]: 3.38 µM
- concentration at 95 min ([1]; cerebellum, 1 mg/kg, Brain concentration, Experiment 1, cerebellum, after DMT alone (1 mg/kg)): 2300 nM
- concentration at 95 min ([1]; cerebellum, 1 mg/kg, Brain concentration, Experiment 1, cerebellum, group DMT (1 mg/kg s.c.), 95 min, mean (SD)): 398 ng/g
- concentration at 95 min [1, 16]: 2270 nM
- concentration at 95 min ([1]; cerebellum, Brain concentration, Experiment 1, cerebellum, after harmine + DMT (1 mg/kg each)): 1100 nM
- concentration at 95 min ([1]; cerebellum, Brain concentration, Experiment 1, cerebellum, group Har (harmine 1 mg/kg s.c.), 95 min after drug, mean (SD)): 11.1 ng/g
- concentration at 95 min ([1]; cerebellum, Brain concentration, Experiment 1, cerebellum, group Har + DMT (1 mg/kg each s.c.), 95 min, mean (SD)): 194 ng/g
- concentration at 65 min ([1]; cerebellum, Brain concentration, Experiment 2, cerebellum, after harmine + DMT (3 mg/kg each)): 3 µM
- concentration at 65 min ([1]; cerebellum, Brain concentration, Experiment 2, cerebellum, group Har + DMT (3 mg/kg each s.c.), 65 min, mean (SD)): 531 ng/g
- concentration at 95 min [1, 17]: 1110 nM
- concentration at 65 min [1, 18]: 3.03 µM
- concentration at 95 min ([1]; frontal cortex, 1 mg/kg, Brain concentration, Experiment 1, frontal cortex, after DMT alone (1 mg/kg)): 2900 nM
- concentration at 95 min ([1]; frontal cortex, 1 mg/kg, Brain concentration, Experiment 1, frontal cortex, group DMT (1 mg/kg s.c.), 95 min, mean (SD)): 504 ng/g
- concentration at 95 min [1, 19]: 2880 nM
- concentration at 95 min ([1]; frontal cortex, Brain concentration, Experiment 1, frontal cortex, after harmine + DMT (1 mg/kg each), 95 min): 1500 nM
- concentration at 95 min ([1]; frontal cortex, Brain concentration, Experiment 1, frontal cortex, group Har (harmine 1 mg/kg s.c.), 95 min, mean (SD)): 14.1 ng/g
- concentration at 95 min ([1]; frontal cortex, Brain concentration, Experiment 1, frontal cortex, group Har + DMT (1 mg/kg each s.c.), 95 min, mean (SD)): 258 ng/g
- concentration at 65 min ([1]; frontal cortex, Brain concentration, Experiment 2, frontal cortex, after harmine + DMT (3 mg/kg each), 65 min): 3.7 µM
- concentration at 65 min ([1]; frontal cortex, Brain concentration, Experiment 2, frontal cortex, group Har + DMT (3 mg/kg each s.c.), 65 min, mean (SD)): 652 ng/g
- concentration at 95 min [1, 20]: 1470 nM
- concentration at 65 min [1, 21]: 3.72 µM

SMILES: C[N+](C)([O-])CCc1c[nH]c2ccccc12 [DMT-N-Oxide, DMT-N-oxide]
- Molar concentration [1, 6]: 3.29 nmol/L
- Percentage of total molar concentration of DMT and metabolites [1, 6]: 0.1%
- Molar concentration ([1]; Exp 1, group DMT, cerebellum): 3.16 nmol/L
- Percentage of total molar concentration of DMT and metabolites ([1]; Exp 1, group DMT, cerebellum): 0.1%
- Molar concentration ([1]; Exp 1, group DMT, front cort): 3.43 nmol/L
- Percentage of total molar concentration of DMT and metabolites ([1]; Exp 1, group DMT, front cort): 0.1%
- Molar concentration [1, 7]: 27.52 nmol/L
- Percentage of total molar concentration of DMT and metabolites [1, 7]: 1.4%
- Molar concentration [1, 8]: 30.49 nmol/L
- Percentage of total molar concentration of DMT and metabolites [1, 8]: 1.8%
- Molar concentration [1, 9]: 24.54 nmol/L
- Percentage of total molar concentration of DMT and metabolites [1, 9]: 1.1%
- Molar concentration [1, 10]: 90.73 nmol/L
- Percentage of total molar concentration of DMT and metabolites [1, 10]: 0.7%
- Molar concentration [1, 11]: 131.9 nmol/L
- Percentage of total molar concentration of DMT and metabolites [1, 11]: 1.2%
- Molar concentration [1, 12]: 49.57 nmol/L
- Percentage of total molar concentration of DMT and metabolites [1, 12]: 0.3%

SMILES: CNCCc1c[nH]c2ccccc12 [NMT, N-methyltryptamine]
- Percentage of total molar concentration of DMT and metabolites [1, 6]: 0.0%
- Percentage of total molar concentration of DMT and metabolites ([1]; Exp 1, group DMT, cerebellum): 0.0%
- Percentage of total molar concentration of DMT and metabolites ([1]; Exp 1, group DMT, front cort): 0.0%
- Percentage of total molar concentration of DMT and metabolites [1, 7]: 0.1%
- Percentage of total molar concentration of DMT and metabolites [1, 8]: 0.1%
- Percentage of total molar concentration of DMT and metabolites [1, 9]: 0.0%
- Percentage of total molar concentration of DMT and metabolites [1, 10]: 0.1%
- Percentage of total molar concentration of DMT and metabolites [1, 11]: 0.2%
- Percentage of total molar concentration of DMT and metabolites [1, 12]: 0.1%
- concentration at 95 min [1, 13]: 0.15 nM
- concentration at 95 min [1, 14]: 1.14 nM
- concentration at 65 min [1, 15]: 0.0159 µM
- concentration at 95 min [1, 16]: 0.15 nM
- concentration at 95 min [1, 17]: 1.38 nM
- concentration at 65 min [1, 18]: 0.0207 µM
- concentration at 95 min [1, 19]: 0.16 nM
- concentration at 95 min [1, 20]: 0.89 nM
- concentration at 65 min [1, 21]: 0.0112 µM

SMILES: Cc1nccc2c1[nH]c1cc(OCCF)ccc12 [[^18F]fluoroethyl-harmol]
- Kd [2]: 300 nM
- Kd [3]: 2 nM

SMILES: Cc1nccc2c1[nH]c1cc(OCC[18F])ccc12 [[^18F]fluoroethyl-harmol]
- In vitro/in vivo affinity difference [4]: 150 fold

SMILES: CN(C)CCc1c[nH]c2cccc(OP(=O)(O)O)c12 [psilocybin]
- Occupancy at 5-HT2A receptors ([5]; PET with [^11C]Cimbi-36, ref Madsen et al., 2019): ≤ 70%
- Occupancy at 5-HT2A receptors in human frontal cortex ([5]; PET with [^18F]altanserin, ref Hasler et al., 2009a): ≤ 35%
